Measurements published in patent US20220386606A1, “SPECIFICALLY SUBSTITUTED 3-PHENYL-5-SPIROCYCLOPENTYL-3-PYRROLIN-2-ONES AND THEIR USE AS HERBICIDES” (Bayer Aktiengesellschaft, priority 2019, published 2022).

What was measured:
SETVI [1] = assay: Pre-emergence herbicidal action against SETVI; format: in vivo, Setaria viridis; settings: 320 g/ha, scored visually after 3 weeks vs untreated controls
In short: (§1)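 Herbicidal activity is expressed as percent visual damage compared with untreated controls, where 100% means dead plants, assessed 3 weeks after pre-emergence treatment of sown, soil-covered seeds in sandy loam under greenhouse conditions.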

ECHCG [2] = assay: Post-emergence herbicidal action against ECHCG; format: in vivo, Echinochloa crus-galli; settings: 80 g/ha, visual assessment about 3 weeks after treatment vs untreated controls
In short: (§2)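 Herbicidal action is rated visually in percent against untreated controls, where 100% means dead plants and 0% means no difference. Ratings come about 3 weeks after foliar spraying of one-leaf-stage plants with aqueous WP or EC preparations plus 0.2% wetting agent at 600 to 800 l/ha.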

ALOMY [3] = assay: Pre-emergence herbicidal action against ALOMY; format: in vivo, Alopecurus myosuroides; settings: 320 g/ha, scored visually after 3 weeks vs untreated controls
In short: as §1

VIOTR [4] = assay: Pre-emergence herbicidal action against VIOTR; format: in vivo, Viola tricolor; settings: 320 g/ha
In short: as §1

LOLRI [5] = assay: Post-emergence herbicidal action against LOLRI; format: in vivo, Lolium rigidum; settings: 80 g/ha, visual assessment about 3 weeks after treatment vs untreated controls
In short: as §2

AMARE [6] = assay: Post-emergence herbicidal action against AMARE; format: in vivo, Amaranthus retroflexus; settings: 80 g/ha, visual assessment about 3 weeks after treatment vs untreated controls
Protocol: (§3) Seeds of monocotyledonous and dicotyledonous weed and crop plants are laid out in sandy loam soil in wood-fiber pots, covered with soil and cultivated in a greenhouse under good growth conditions. 2 to 3 weeks after sowing, the test plants are treated at the one-leaf stage. The compounds of the invention, formulated in the form of wettable powders (WP) or as emulsion concentrates (EC), are then sprayed onto the green parts of the plants as aqueous suspension or emulsion at a water application rate equating to 600 to 800 l/ha with addition of 0.2% wetting agent. After the test plants have been left to stand in the greenhouse under optimal growth conditions for about 3 weeks, the action of the preparations is assessed visually in comparison to untreated controls (herbicidal action in percent (%): 100% activity=the plants have died, 0% activity=like control plants).

ALOMY [7] = assay: Post-emergence herbicidal action against ALOMY; format: in vivo, Alopecurus myosuroides; settings: 80 g/ha, visual assessment after about 3 weeks
In short: as §2

AMARE [8] = assay: Pre-emergence herbicidal action against AMARE; format: in vivo, Amaranthus retroflexus; settings: 320 g/ha
In short: as §1

ABUTH [9] = assay: Post-emergence herbicidal action against ABUTH; format: in vivo, Abutylon threophrasti; settings: 80 g/ha, visual assessment about 3 weeks after treatment vs untreated controls
In short: as §2

MATIN = assay: Pre-emergence herbicidal action against MATIN; format: in vivo; settings: 320 g/ha
In short: as §1

VERPE [10] = assay: Post-emergence herbicidal action against VERPE; format: in vivo, Veronica persica; settings: 80 g/ha, visual assessment about 3 weeks after treatment vs untreated controls
Protocol: as §3

AVEFA [11] = assay: Pre-emergence herbicidal action against AVEFA; format: in vivo, Avena fatua; settings: 320 g/ha, scored visually after 3 weeks vs untreated controls
In short: as §1

SETVI [12] = assay: Post-emergence herbicidal action against SETVI; format: in vivo, Setaria viridis; settings: 80 g/ha, visual assessment about 3 weeks after treatment vs untreated controls
In short: as §2

VERPE [13] = assay: Pre-emergence herbicidal action against VERPE; format: in vivo, Veronica persica; settings: 320 g/ha
In short: as §1

ABUTH [14] = assay: Pre-emergence herbicidal action against ABUTH; format: in vivo, Abutylon threophrasti; settings: 320 g/ha
In short: as §1

ECHCG [15] = assay: Pre-emergence herbicidal action against ECHCG; format: in vivo, Echinochloa crus-galli; settings: 320 g/ha, scored visually after 3 weeks vs untreated controls
In short: as §1

DIGSA [16] = assay: Pre-emergence herbicidal action against DIGSA; format: in vivo, Digitaria sanguinalis; settings: 320 g/ha, scored visually after 3 weeks vs untreated controls
In short: as §1

DIGSA [17] = assay: Post-emergence herbicidal action against DIGSA; format: in vivo, Digitaria sanguinalis; settings: 80 g/ha, visual assessment about 3 weeks after treatment vs untreated controls
In short: as §2

LOLRI [18] = assay: Pre-emergence herbicidal action against LOLRI (Table 8, titled post-emergence at 320 g/ha); format: in vivo, Lolium rigidum; settings: table stands in the pre-emergence section
In short: as §1

POLCO = assay: Pre-emergence herbicidal action against POLCO; format: in vivo, Polygonum convolvulus; settings: 320 g/ha
In short: as §1

AVEFA [19] = assay: Post-emergence herbicidal action against AVEFA; format: in vivo, Avena fatua; settings: 80 g/ha, visual assessment after about 3 weeks
In short: as §2

VIOTR [20] = assay: Post-emergence herbicidal action against VIOTR; format: in vivo, Viola tricolor; settings: 80 g/ha, visual assessment about 3 weeks after treatment vs untreated controls
Protocol: as §3

PHBPU = assay: Post-emergence herbicidal action against PHBPU; format: in vivo; settings: assessed visually after about 3 weeks, 100% = plants have died, 0% = like control plants
Protocol: as §3

| SMILES | Pre-emergence action against SETVI in % (SETVI [1]) [%] | Post-emergence action against ECHCG in % (ECHCG [2]) [%] | Pre-emergence action against ALOMY in % (ALOMY [3]) [%] | Pre-emergence action against VIOTR in % (VIOTR [4]) [%] | Post-emergence action against LOLRI in % (LOLRI [5]) [%] | Post-emergence action against ALOMY in % (ALOMY [7]) [%] | Pre-emergence action against AMARE in % (AMARE [8]) [%] | Post-emergence action against ABUTH in % (ABUTH [9]) [%] | Pre-emergence action against MATIN in % (MATIN) [%] | Post-emergence action against VERPE in % (VERPE [10]) [%] | Pre-emergence action against AVEFA in % (AVEFA [11]) [%] | Post-emergence action against SETVI in % (SETVI [12]) [%] | Pre-emergence action against VERPE in % (VERPE [13]) [%] | Pre-emergence action against ABUTH in % (ABUTH [14]) [%] | Pre-emergence action against ECHCG in % (ECHCG [15]) [%] | Pre-emergence action against DIGSA in % (DIGSA [16]) [%] | Post-emergence action against DIGSA in % (DIGSA [17]) [%] | Pre-emergence herbicidal action against LOLRI in % (LOLRI [18]) [%] | Pre-emergence action against POLCO in % (POLCO) [%] | Post-emergence action against AVEFA in % (AVEFA [19]) [%] | other results |
| --- | --- | --- | --- | --- | --- | --- | --- | --- | --- | --- | --- | --- | --- | --- | --- | --- | --- | --- | --- | --- | --- |
| CC#Cc1cc(C)c(C2=C(O)C3(CCC(COCC)C3)NC2=O)c(Cl)c1 (stereo not shown) [Example I-02] | 100 | 100 | 100 | 100 | 100 | 100 | 100 | 80 | 90 | 90 | 100 | 100 | 90 | 100 | 100 | 100 | 90 | 100 | 100 | 90 | Post-emergence action against AMARE in % (AMARE [6]): 80% |
| CC#Cc1cc(C)c(C2=C(O)C3(CCC(COCC)C3)NC2=O)c(OC)c1 (stereo not shown) [Example I-32] | 100 | 100 | 100 | 100 | 100 | 100 |  | 80 |  | 80 | 90 |  |  |  | 100 | 100 | 100 | 100 |  | 100 | Post-emergence action against VIOTR in % (VIOTR [20]): 80% |
| CC#Cc1cc(F)c(C2=C(O)C3(CCC(COC)C3)NC2=O)c(OC)c1 (stereo not shown) [Example I-41] | 100 | 100 |  |  | 90 | 100 |  |  |  |  | 80 | 100 |  |  |  | 100 | 100 | 100 |  | 90 | Post-emergence action at 80 g/ha against PHBPU in % (PHBPU): 80% |
| CC#Cc1cc(C)c(C2=C(O)C3(CCC(COCCC)C3)NC2=O)c(OC)c1 (stereo not shown) [Example I-58] | 100 | 100 | 100 | 90 | 100 | 100 | 100 |  | 100 |  | 80 | 100 |  |  | 100 | 100 | 90 | 100 |  |  | Post-emergence action at 80 g/ha against PHBPU in % (PHBPU): 80%; Post-emergence action against VIOTR in % (VIOTR [20]): 80% |
| CC#Cc1cc(C)c(C2=C(OC(=O)C(C)C)C3(CCC(COCC)C3)NC2=O)c(Cl)c1 (stereo not shown) [Example P-29] | 100 | 100 | 100 | 100 | 100 | 100 | 100 |  | 90 | 80 | 100 | 100 | 100 | 80 | 100 | 100 | 100 | 100 | 90 | 90 |  |
| CC#Cc1cc(C)c(C2=C(OC(=O)OCC)C3(CCC(COC)C3)NC2=O)c(Br)c1 (stereo not shown) [Example P-30] | 100 | 100 | 100 | 100 | 100 | 100 | 100 | 80 |  | 80 | 100 | 100 | 80 | 80 | 100 | 100 | 100 | 100 | 80 | 90 |  |
| CC#Cc1cc(C)c(C2=C(OC(=O)OCC)C3(CCC(COC)C3)NC2=O)c(F)c1 (stereo not shown) [Example P-52] | 100 | 100 | 100 | 90 | 100 | 100 | 80 | 80 |  | 80 | 90 |  |  |  | 100 | 100 | 100 | 100 | 80 | 90 | Post-emergence action against AMARE in % (AMARE [6]): 80% |
| CC#Cc1cc(C)c(C2=C(OC(=O)OCC)C3(CCC(COCCC)C3)NC2=O)c(OC)c1 (stereo not shown) [Example P-81] | 100 | 100 | 100 | 100 | 100 | 100 | 100 |  | 80 |  | 100 | 100 | 90 |  | 100 | 100 | 90 | 100 | 100 | 80 | Post-emergence action at 80 g/ha against PHBPU in % (PHBPU): 80% |
